Twelve compounds from patent US11021444B2, “Antiviral compounds” (priority 2013, dated 2021) can be followed below.

Series [1] relates to HEp-2 cells. In words: Cytotoxicity Determination (CCK-8, without addition of virus). It is filed as cell-based. In outline:
(§1)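 HEp-2 cells were seeded at 1,500 cells/well one day before compound addition. Compounds were tested without virus in duplicate over 7 points from 100 μM in 1/2 steps, with 1% final DMSO, 5 days at 37 °C, 5% CO2. Viability was read by CCK-8 after 3-4 hours.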

In series [2] the target is recombinant RSV complex (Human respiratory syncytial virus A, UniProt P28887). In words: RSV Polymerase Inhibition Assay. It is filed as biochemical. Summed up:
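10 nM recombinant RSV polymerase complex in Tris-HCl pH 7.5, 6 mM MgCl2 with RNA oligonucleotide template and radionucleotides, incubated 2 h at 30 °C with increasing inhibitor concentrations. Reaction stopped with EDTA; radiolabeled RNA product counted by scintillation.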

Series [3] deals with Respiratory Syncytial Virus (RSV) long strain. In words: microbe, parasite or virus in culture. It is filed as cell-based. The note with it: human respiratory syncytial virus, Tables A and B list compounds by EC50 band. Summed up:
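HEp-2 cells infected with 100 TCID50 virus per well, compounds in duplicate, 9-point 1/3 dilutions from 100 μM or 1 μM, 1% DMSO. After 5 days at 37 °C, cell viability (CPE protection) read by CCK-8 absorbance at 450 nm, 630 nm background.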

Series [4] relates to RSV replicon. In words: microbe, parasite or virus in culture. The note with it: human respiratory syncytial virus, read-out: EC50, the concentration of the drug required for reducing RSV replicon RNA by 50%. It is filed as cell-based. (A replicon is a self-replicating genome or part of one, used to study replication in cells.)
Series [5] in a line: Cytotoxicity Determination (CCK-8, without addition of virus). It is filed as cell-based. The note with it: human, 50% cytotoxicity concentration (CC50). Summed up:
as §1

Setting [6] is: HEp-2, 120 h, read-out: 50% effective concentration (EC50), HEp-2 cells infected with RSV long strain, 5 days, CCK-8 readout.

As usually defined, the CC50 is the concentration at which the toxic effect on the cells reaches its halfway point. Low readings indicate greater toxicity to the cells, high ones lower toxicity to the cells. One may read the IC50 as the concentration that inhibits the measured activity by half.

Read-outs that look alike come from different tables or passages of the source. Where only a bound is given, the exact number is not on record here.

recombinant RSV complex, sequence (P28887 whole entry): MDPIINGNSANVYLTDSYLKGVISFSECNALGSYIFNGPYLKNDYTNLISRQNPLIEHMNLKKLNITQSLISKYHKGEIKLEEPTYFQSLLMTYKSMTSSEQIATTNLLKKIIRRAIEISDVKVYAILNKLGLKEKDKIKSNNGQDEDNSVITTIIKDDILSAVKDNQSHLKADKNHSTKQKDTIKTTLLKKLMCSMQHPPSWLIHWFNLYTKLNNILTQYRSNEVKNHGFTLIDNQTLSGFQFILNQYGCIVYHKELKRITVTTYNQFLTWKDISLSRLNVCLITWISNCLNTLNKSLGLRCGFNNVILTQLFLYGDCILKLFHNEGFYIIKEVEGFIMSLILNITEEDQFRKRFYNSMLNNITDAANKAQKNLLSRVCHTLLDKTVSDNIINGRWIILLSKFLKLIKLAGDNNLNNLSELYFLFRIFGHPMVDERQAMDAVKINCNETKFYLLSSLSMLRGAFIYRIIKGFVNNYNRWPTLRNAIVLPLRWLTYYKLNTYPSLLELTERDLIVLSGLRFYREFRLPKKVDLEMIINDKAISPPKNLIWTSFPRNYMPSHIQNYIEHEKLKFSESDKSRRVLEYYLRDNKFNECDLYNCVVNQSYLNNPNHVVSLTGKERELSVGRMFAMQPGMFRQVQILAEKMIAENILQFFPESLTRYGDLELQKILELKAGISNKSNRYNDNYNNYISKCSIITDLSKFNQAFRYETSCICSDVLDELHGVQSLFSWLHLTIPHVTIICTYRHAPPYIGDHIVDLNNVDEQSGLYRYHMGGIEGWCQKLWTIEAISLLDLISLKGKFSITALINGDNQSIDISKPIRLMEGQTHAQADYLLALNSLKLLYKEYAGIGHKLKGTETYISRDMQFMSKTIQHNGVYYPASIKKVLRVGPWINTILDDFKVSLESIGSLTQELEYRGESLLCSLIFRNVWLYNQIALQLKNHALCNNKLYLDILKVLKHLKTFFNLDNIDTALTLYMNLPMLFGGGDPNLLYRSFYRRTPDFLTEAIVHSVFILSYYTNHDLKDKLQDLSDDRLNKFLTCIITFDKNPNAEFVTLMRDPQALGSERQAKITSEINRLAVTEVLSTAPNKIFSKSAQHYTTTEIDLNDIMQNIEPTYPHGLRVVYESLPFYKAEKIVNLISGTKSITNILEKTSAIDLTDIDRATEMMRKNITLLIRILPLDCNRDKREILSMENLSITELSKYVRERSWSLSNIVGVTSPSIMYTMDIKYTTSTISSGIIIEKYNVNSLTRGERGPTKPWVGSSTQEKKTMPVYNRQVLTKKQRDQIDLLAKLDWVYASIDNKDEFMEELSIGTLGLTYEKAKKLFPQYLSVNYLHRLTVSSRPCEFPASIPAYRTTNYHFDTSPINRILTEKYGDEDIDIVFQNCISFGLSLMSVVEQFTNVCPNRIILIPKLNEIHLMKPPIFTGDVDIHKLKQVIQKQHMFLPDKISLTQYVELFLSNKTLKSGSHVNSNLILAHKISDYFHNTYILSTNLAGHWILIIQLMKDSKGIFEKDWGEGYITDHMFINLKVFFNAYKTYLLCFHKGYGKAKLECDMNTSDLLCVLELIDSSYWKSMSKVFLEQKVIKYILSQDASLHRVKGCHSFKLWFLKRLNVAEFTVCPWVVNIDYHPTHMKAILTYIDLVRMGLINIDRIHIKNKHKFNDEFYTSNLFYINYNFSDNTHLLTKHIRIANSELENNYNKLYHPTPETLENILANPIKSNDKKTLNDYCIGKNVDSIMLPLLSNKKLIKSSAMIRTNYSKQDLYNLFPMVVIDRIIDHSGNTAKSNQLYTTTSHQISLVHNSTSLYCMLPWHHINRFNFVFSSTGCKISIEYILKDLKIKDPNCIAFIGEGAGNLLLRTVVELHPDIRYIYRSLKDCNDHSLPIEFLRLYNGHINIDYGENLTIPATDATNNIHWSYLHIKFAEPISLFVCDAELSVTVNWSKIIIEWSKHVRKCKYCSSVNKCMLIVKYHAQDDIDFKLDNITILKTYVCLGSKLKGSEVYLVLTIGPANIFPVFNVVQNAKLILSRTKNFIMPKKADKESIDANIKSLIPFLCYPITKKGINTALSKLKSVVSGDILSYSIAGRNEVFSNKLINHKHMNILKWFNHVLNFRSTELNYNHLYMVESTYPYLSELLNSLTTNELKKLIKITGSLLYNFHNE
recombinant RSV complex, sequence (P03421 whole entry, further chain): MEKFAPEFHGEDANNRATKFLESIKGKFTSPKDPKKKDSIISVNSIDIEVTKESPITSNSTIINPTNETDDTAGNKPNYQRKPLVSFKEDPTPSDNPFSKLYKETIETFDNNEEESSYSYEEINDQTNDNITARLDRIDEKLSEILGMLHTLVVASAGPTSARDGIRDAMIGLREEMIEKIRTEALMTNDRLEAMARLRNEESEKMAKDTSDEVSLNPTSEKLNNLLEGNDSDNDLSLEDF

As for `COc1cc(C(=O)NCC(O)(c2cc(C(C)(N)CF)cc(-c3ccc(F)cc3)n2)C(F)(F)F)ccc1OCC(N)=O` (single isomer, unassigned) [Compound 655], the CC50 in series [1] (human, 5 days) is greater than 100 µM. Further, the IC50 in series [2] is less than 1 µM.
As for `COc1ccc(C(O)(CNC(=O)c2ccc(O[C@H]3CCNC3=O)c(Cl)c2)C(F)(F)F)cc1-c1ccc(F)c(Cl)c1` (stereo partly shown) [Compound 260], the CC50 in series [1] fell in the range of 10 to 100 µM.
For the compound `CCC(O)(CNC(=O)c1ccc(OCCF)c(OC)c1)c1ccc(OC)c(-c2ccc(F)c(Cl)c2)n1` (single isomer, unassigned) [Compound 122b], in series [1] (human, 5 days), the CC50 fell in the range of 10 to 100 µM. In addition, the IC50 in series [2] is less than 10 µM.
Consider `COc1cc(C(=O)NCC(O)(c2ccc(OC)c(-c3ccc(F)c(Cl)c3)n2)C(F)F)ccc1OCC(N)=O` (stereo not shown) [Compound 447], for which the CC50 in series [1] (human, 5 days) was greater than 100 µM.
In the case of `COc1cc(C(=O)NCC(O)(c2cc(C(C)(N)CF)cc(-c3ccc(F)cc3)n2)C(F)(F)F)ccc1OCC(N)=O` (single isomer, unassigned) [Compound 656], in series [3] (setting [6]), the EC50 was less than 1 µM. This compound also displayed a CC50 in series [1] (human, 5 days) of 10 to 100 µM.
On to `COc1cc(C(=O)NCC(O)(c2ccc(OC)c(-c3ccc(F)c(Cl)c3)n2)C(F)(F)F)ccc1OCC(N)=O` (single isomer, unassigned) [Compound 239], for which, in series [1] (human, 5 days), the CC50 fell in the range of 10 to 100 µM. Also, the EC50 in series [4] was less than 1 µM.
Take `COc1cc(C(=O)NCC(O)(c2ccc(OC)c(-c3ccc(F)c(Cl)c3)n2)C(F)F)ccc1OCC(N)=O` (stereo not shown) [Compound 442]: the EC50 in series [3] (setting [6]) and in series [4] was less than 1 µM in each case. The compound further gave a CC50 in series [1] (human, 5 days) of 10 to 100 µM. For the same compound, the IC50 in series [2] is less than 1 µM.
For the compound `COc1cc(C(=O)NCC(O)(c2ccc(OC)c(-c3ccc(F)c(Cl)c3)n2)C2CC2)ccc1OCCO` (stereo not shown) [Compound 243], the CC50 in series [1] (human, 5 days) is 10 to 100 µM.
For the compound `COc1cc(C(=O)NCC(O)(c2ccc(OC)c(-c3ccc(F)c(Cl)c3)n2)C2CC2)ccc1OCc1ncn[nH]1` (stereo not shown) [Compound 360], the EC50 was less than 1 µM in series [3] (120 h, read-out: 50% effective concentration (EC50), HEp-2 cells infected with RSV long strain, 5 days, CCK-8 readout) and less than 1 µM in series [4]. In series [5], the CC50 at 5 days fell in the range of 10 to 100 µM. In addition, the IC50 in series [2] was less than 1 µM.
As to `CNc1cc(-c2ccc(F)c(Cl)c2)nc(C(O)(CNC(=O)c2ccc(OC3CC3)c(OC)c2)C(F)(F)F)c1` (stereo not shown) [Compound 448], the EC50 in series [3] (setting [6]) and in series [4] was less than 1 µM throughout. Besides, in series [5], the CC50 at 5 days fell in the range of 10 to 100 µM. Moreover, the IC50 in series [2] is less than 1 µM.
For `COc1cc(C(=O)NCC(O)(c2cc(C(C)(C)NC(C)=O)cc(-c3ccc(F)c(Cl)c3)n2)C(F)(F)F)ccc1OCC(N)=O` (stereo not shown) [Compound 612], the EC50 in series [3] (setting [6]) and in series [4] was less than 1 µM throughout. For the same compound, in series [5], the CC50 at 5 days is greater than 100 µM. Also, in series [2], the IC50 is less than 1 µM.
For `COc1cc(C(=O)NCC(O)(c2cc3c(c(-c4ccc(Cl)cc4)n2)OCC3(C)N)C(F)(F)F)ccc1CO[C@@H](C)O` (stereo partly shown) [Compound 646], the EC50 in series [3] (setting [6]) and in series [4] was less than 1 µM throughout. This compound returned a CC50 at 5 days in series [5] of 10 to 100 µM. The IC50 in series [2] is less than 1 µM.
